As usually defined, the solubility (kinetic) is the concentration staying in solution when a stock, usually in DMSO, is diluted into the medium.

≈ marks a conversion by molar mass, not a printed value.

These results are taken from PubChem BioAssay AID1996.

The conditions of the data set: buffer; pH 7.4; 200.0 µM.
`CC(Oc1ccc(Cl)cc1)C(=O)NCC1CCCO1` (configuration not stated): the kinetic solubility came out at 41.5 µg/mL (≈ 146 µM). As for `Nc1cc(=O)[nH]c(SCC(=O)Nc2ccccc2-c2ccccc2)n1`, the figure is greater than 52.9 µg/mL; as for `CC(=O)c1c(C)[nH]c(C(=O)COC(=O)c2cccs2)c1C`, 6.9 µg/mL (≈ 22.6 µM).

Take `O=C(CCc1c[nH]c2ccccc12)NCCOc1ccccc1`: the solubility (kinetic) is 43.7 µg/mL (≈ 142 µM).

`COc1cccc(C(=O)NCCCNC(=O)c2ccccn2)c1` returned a kinetic solubility of 43.3 µg/mL (≈ 138 µM). The value for `CC(C)NC(=O)N1CCN(c2ccncc2S(=O)(=O)N2CCCCC2)CC1` was greater than 59.3 µg/mL; that for `CC(C)[N+]1=C2C=CC=CC=C2SC12C([N+](=O)[O-])=CC(=[N+]([O-])[O-])C=C2[N+](=O)[O-]` (configuration not stated) was 1.3 µg/mL (≈ 3.33 µM). As for `COc1ccc(C2=COc3ccccc3C(=O)N2)cc1`, the figure is 11.4 µg/mL (≈ 42.7 µM). Compound `COn1c(-c2ccccc2)nc2ncccc21` returned a kinetic solubility greater than 33.8 µg/mL. In turn, `COc1ccc(NC(=O)c2cc3cc(OC)ccc3oc2=O)cc1` had a kinetic solubility of less than 0.7 µg/mL. As for `COc1ccc(Cn2c(C)nc3c(c(=O)c4ccccc4n3C)c2=O)cc1`, the figure is 0.7 µg/mL (≈ 1.94 µM); as for `CCOC(=O)c1ccc2ncc(-c3ccccc3)nc2c1`, 0.3 µg/mL (≈ 1.08 µM); as for `CN1CC(C(=O)c2cccs2)C(c2ccc(Cl)cc2)C1` (configuration not stated), greater than 45.9 µg/mL.

`O=C(COC(=O)C1CC2CCCC(C1)C2=O)NC1CCCCC1` (configuration not stated) gave a kinetic solubility greater than 48.2 µg/mL. The value for `CN(Cc1nc(-c2ccc(Cl)cc2)no1)C(=O)c1ccco1` was 47.5 µg/mL (≈ 149 µM); that for `Cc1ccc(-c2nc(N)s[n+]2-c2ccccc2)cc1.[Br-]` was 21 µg/mL. As for `COc1ccc(-c2csc(-c3ccc(O)cc3)n2)cc1`, the figure is less than 0.6 µg/mL. Regarding `CCCOP(=O)(c1ccc(N(C)C)cc1)C(O)c1ccc(Cl)cc1` (configuration not stated), the kinetic solubility turned out to be 18.5 µg/mL (≈ 50.3 µM). For `O=C(NCCc1ccccc1)c1ccc2[nH]c(=O)c(=O)[nH]c2c1`, the solubility (kinetic) is greater than 46.4 µg/mL. Compound `CCCCc1nc2ccccc2[nH]1` gave a kinetic solubility greater than 26.1 µg/mL. The value for `O=C(O)c1ccccc1C(=O)N1CCN(c2ncccn2)CC1` was greater than 46.8 µg/mL.

The compound `Cc1cccc(NC(=O)Nc2ccc3c(c2)CCC3)c1` showed a kinetic solubility of less than 0.3 µg/mL. The value for `Cc1ccc(NC(=O)CN2CCOCC2)cc1S(=O)(=O)N1CCCCC1` was greater than 57.2 µg/mL.

`Cc1cc(C)c(S(=O)(=O)c2ccccc2Cl)c(=O)[nH]1` had a kinetic solubility of 42.2 µg/mL (≈ 142 µM). As for `COc1cccc(NC(=S)Nc2cc(C)cc(C)n2)c1`, the figure is 0.3 µg/mL (≈ 1.04 µM); as for `O=C(NCc1ccccc1F)C1CCCN1C(=O)Nc1ccccc1` (configuration not stated), greater than 51.2 µg/mL; as for `C=CCN1C(=O)/C(=C/c2cc(C)n(-c3cccnc3)c2C)C(=O)NC1=S`, 12.9 µg/mL (≈ 35.2 µM). The value for `Cc1ccc(S(=O)(=O)NC(=O)Nc2ccc(OC(F)F)cc2)cc1` was 52.3 µg/mL (≈ 147 µM); that for `COC(=O)c1sccc1NC(=O)c1ccc(Cl)cc1` was less than 0.6 µg/mL; that for `O=C(CSc1cccc[n+]1[O-])Nc1ccccc1C(F)(F)F` was greater than 49.2 µg/mL. Regarding `CC(C)(C)c1cc(-c2ccccc2)no1`, the kinetic solubility is 0.8 µg/mL (≈ 3.97 µM). The compound `CCOc1ccccc1NC(=O)COc1ccc2c(c1)OCO2` gave a solubility (kinetic) of less than 0.7 µg/mL. The value for `S=c1[nH]c2cc3ccccc3cc2[nH]1` was 27.9 µg/mL (≈ 139 µM); that for `O=C(c1cc2ccccc2s1)N1CCOCC1` was greater than 37.1 µg/mL.

Turning to `CN(CC(O)Cn1cnc2c1c(=O)n(C)c(=O)n2C)c1ccccc1` (configuration not stated), the solubility (kinetic) is greater than 51.5 µg/mL. The value for `OCCCNc1nc(-c2ccccc2)c2cc(Cl)ccc2n1` was 21.5 µg/mL (≈ 68.5 µM); that for `Cc1ccc(/C=C/c2ccc3cccc(O)c3n2)s1` was 1.4 µg/mL (≈ 5.24 µM). The value for `O=C(Nc1ccc(Oc2ccccc2)cc1)N[C@@H](Cc1ccccc1)C(=O)O` was greater than 56.5 µg/mL. As for `CS(=O)(=O)N(CC(=O)N1CCOCC1)c1ccc(Cl)cc1`, the figure is greater than 49.9 µg/mL; as for `Cc1nc2ccccc2c(=O)n1NC(=O)c1cccc(Cl)c1`, greater than 47.1 µg/mL; as for `COC(=O)C1CN(C(=O)COc2cc(C)cc(C)c2)c2ccccc2O1` (configuration not stated), 3.7 µg/mL (≈ 10.4 µM).

Consider `O=[N+]([O-])c1ccc(CN2CCN(c3ccccc3Cl)CC2)o1`, for which the kinetic solubility was 31.8 µg/mL (≈ 98.8 µM). As for `COc1ccc(CN2CCNCC2)cc1.Cl`, the figure is greater than 36.4 µg/mL. As to `COc1ccccc1OCCn1cc(C=O)c2ccccc21`, the solubility (kinetic) was 7.8 µg/mL (≈ 26.4 µM).

Turning to `Cn1c(SCC2CCCO2)nnc1-c1cccc([N+](=O)[O-])c1` (configuration not stated), the kinetic solubility was greater than 48.1 µg/mL. The value for `CCn1c(C(=O)NC2CCC(C)CC2)cc2sccc21` (configuration not stated) was 0.7 µg/mL (≈ 2.41 µM); that for `O=C1CC(C(=O)NC2CCCCC2)C2(CCCCC2)O1` (configuration not stated) was greater than 41.9 µg/mL. As for `CCC(CC)C(=O)c1c[nH]c(C(=O)NCc2cccnc2)c1`, the figure is 42.2 µg/mL (≈ 141 µM); as for `COc1ccc(C2c3ccc(O)cc3Oc3ncn(CCCO)c(=N)c32)cc1` (configuration not stated), greater than 56.9 µg/mL.

Consider `Brc1cnc2ccccc2c1N1CCCCC1`, for which the solubility (kinetic) worked out at 1.2 µg/mL (≈ 4.12 µM). `CCC1(c2ccc(F)cc2)NC(=O)N(CC(=O)Nc2ccc3c(c2)OCCO3)C1=O` (configuration not stated) displayed a kinetic solubility of 16 µg/mL (≈ 38.7 µM). In turn, `COC(=O)C[N+](C)(C)C/C=C\c1ccccc1.[Br-]` gave a solubility (kinetic) greater than 47.1 µg/mL.
